The test system of data set [1] is HepG2 human hepatocellular carcinoma cell line. Description: MTT assay. The class given is cell-based. The note with it: Homo sapiens, HepG2. The protocol: (§1) The anticancer effects of compounds 1–10 on A549 human lung adenocarcinoma (ATCC® CCL-185™), HepG2 human hepatocellular carcinoma (ATCC® HB-8065™), and C6 rat glioma (ATCC® CCL107™) cell lines were assessed using 3-(4,5-Dimethylthiazol-2-yl)-2,5-diphenyltetrazolium bromide (MTT) assay, whereas the selectivity of compounds 1–10 was tested using NIH/3T3 mouse embryonic fibroblast cell line (ATCC® CRL-1658™, London, UK). All cell lines were incubated according to the supplier’s recommendations. The cells were seeded as 1 × 10^4 cells into each well of the 96-well plates. MTT assay was performed as previously described. The compounds were tested between the concentrations equal to 1 mM and 0.000316 mM (1.0, 0.316, 0.10, 0.0316, 0.01, 0.00316, 0.001, 0.000316 mM). Stock solutions of compounds were prepared in dimethyl sulfoxide (DMSO) and further dilutions were made with fresh culture medium. The final DMSO concentration was under 1% [34] and cisplatin was used as a positive control. Inhibition % was calculated for each concentration according to the formula below, and IC50 values were determined by plotting a dose–response curve of inhibition % versus compound concentrations tested. All experiments were performed in quadruplicate.Inhibition % = 100 − [(ODtest compound − ODblank/ODsolvent control − ODblank)] × 100(1)
A general note: Formazan colour is commonly taken as a measure of viable cells.

The subject of the next data set is C6 rat glioma cell line. Nature of the data set: MTT assay. The class given is cell-based. The note with it: Rattus norvegicus, C6. Here is the method: as §1
Data set [2] concerns NIH/3T3 mouse embryonic fibroblast cell line. Description: MTT assay. The note with it: Mus musculus, NIH3T3, healthy cells for selectivity. The class given is cell-based. The protocol: as §1
In data set [3] the test system is A549 human lung adenocarcinoma cell line. Nature of the data set: MTT assay. The class given is cell-based. The note with it: Homo sapiens, A549. Here is the method: as §1
The subject of data set [4] is E. faecalis (ATCC 29212). Description: ATP luminescence microbial cell viability assay. Format: cell-based, Enterococcus faecalis. The note with it: 24 h treatment, result in words. The protocol: (§2) A model from BioTek Instruments Inc. combined with a BacTiter-Glo^TM Microbial Cell Viability assay (Promega Corp., Madison, WI, USA) was used to provide a sensitive and rapid method for determining the number of viable microbial cells in culture based on quantitation of the ATP present. […] After incubation, cultures were added into the wells (final concentration of bacteria was 5 × 10^5 CFU/mL and 2.5 × 10^6 CFU/mL for yeasts). After adding the BacTiter reagent, incubation time for bacteria and yeasts was 5 min and 15 min, respectively.
(§3) The assay generates a “glow-type” luminescent signal, produced by the luciferase reaction. Briefly, after chemicals and strains were incubated for 24 h, 100 µL of the culture was taken from each well and mixed with the same volume of the BacTiter-Glo™ reagent in a white, opaque-walled microtiter plate. Control wells containing medium without cells were prepared to obtain a value for background luminescence. Cells without compound were used as an ATP-positive control. The microplates were further incubated under agitation for 7 min. Bioluminescence was recorded in a multi-detection microplate reader (BioTek Synergy 2 Multi-Mode Microplate Reader, BioTek Instruments, Winooski, VT, USA). In Figure 3, results were given as percentage of untreated control, which is set at 100%. Experiments were performed in triplicate and each sample was measured in four replicates.

For data set [5], the system named is E. faecalis (ATCC 51299). Nature of the data set: ATP luminescence microbial cell viability assay. The note with it: 24 h treatment, result in words. The class given is cell-based, Enterococcus faecalis. The protocol:
as §2, §3

Data set [6] relates to E. faecalis (ATCC 29212). Description: Microdilution susceptibility assay (MIC). Format: cell-based. The note with it: Enterococcus faecalis, ATCC29212. Here is the method: (§4) Compounds 1–10 were screened for their antimicrobial activity against gram-negative bacteria, gram-positive bacteria, and yeasts, listed in Table 1. Bacteria were grown in Mueller-Hinton Broth and yeasts were grown in Sabouraud Dextrose Broth (SDB) during experiments. Overnight cultures were prepared routinely by subculturing of stock culture onto Mueller-Hinton Agar for bacteria and Sabouraud Dextrose Agar for yeasts.
(§5) Microdilution susceptibility assay was used for the determination of antibacterial and anticandidal efficacy of compounds 1–10. Chloramphenicol and ketoconazole were used as positive controls for bacteria and yeasts, respectively. All experiments were designed according to the Clinical Laboratory Standards Institute (CLSI). All chemicals were dissolved in dimethyl sulfoxide (DMSO) to obtain stock solution (10 mg/mL). Two-fold serial dilutions (800, 400, 200...0.78 µg/mL) of the compounds were prepared from stock solutions with dH2O. 100 µL of each solution was transferred to 96-well microtiter plates and 100 µL of 10^6 CFU/mL of bacteria and 2 × 10^3 of CFU/mL yeast were added to related wells. As negative controls, wells including microorganisms without agents and wells including agents without microorganisms were used. The plates were kept at 35 °C for 18–20 h and the growth was determined with resazurin (20 mg/mL). Assays were carried out in triplicate.
(In general: Broth dilution looks for growth in wells or tubes with falling amounts of substance.)

Data set [7] concerns K. pneumoniae (ATCC 700603). Description: Microdilution susceptibility assay (MIC). The class given is cell-based. The note with it: Klebsiella pneumoniae, ATCC700603. Here is the method:
as §4, §5

In the next data set the test system is C. albicans (ATCC 90028). Description: Microdilution susceptibility assay (MIC). Format: cell-based. The note with it: Candida albicans, ATCC90028. Here is the method:
as §4, §5

The subject of a further data set is S. aureus (ATCC 25923). Description: Microdilution susceptibility assay (MIC). Format: cell-based. The note with it: Staphylococcus aureus, ATCC25923. Here is the method:
as §4, §5

Another data set concerns E. coli (ATCC 25922). Description: Microdilution susceptibility assay (MIC). The note with it: Escherichia coli, ATCC25922. Format: cell-based. Here is the method:
as §4, §5

The subject of data set [8] is E. faecalis (ATCC 51299). Nature of the data set: Microdilution susceptibility assay (MIC). The class given is cell-based. The note with it: Enterococcus faecalis, ATCC51299. The protocol: as §4, §5
The subject of a further data set is C. krusei (ATCC 6258). Description: Microdilution susceptibility assay (MIC). Format: cell-based, Candida krusei. The note with it: Pichia kudriavzevii, ATCC6258. Here is the method:
as §4, §5

The subject of data set [9] is C. parapsilosis (ATCC 22019). Description: Microdilution susceptibility assay (MIC). The class given is cell-based, Candida parapsilosis. The note with it: Lodderomyces parapsilosis, ATCC22019. Here is the method: as §4, §5
The next data set has as its system C. glabrata (ATCC 90030). Nature of the data set: Microdilution susceptibility assay (MIC). The note with it: Nakaseomyces glabratus, ATCC90030. The class given is cell-based, Candida glabrata. Here is the method:
as §4, §5

In the next data set the test system is C. albicans. Nature of the data set: ATP luminescence microbial cell viability assay. The note with it: 24 h treatment, result in words. The class given is cell-based, Candida albicans. Here is the method:
as §2
The assay generates a “glow-type” luminescent signal, produced by the luciferase reaction. Briefly, after chemicals and strains were incubated for 24 h, 100 µL of the culture was taken from each well and mixed with the same volume of the BacTiter-Glo™ reagent in a white, opaque-walled microtiter plate. Control wells containing medium without cells were prepared to obtain a value for background luminescence. Cells without compound were used as an ATP-positive control. The microplates were further incubated under agitation for 7 min. Bioluminescence was recorded in a multi-detection microplate reader (BioTek Synergy 2 Multi-Mode Microplate Reader, BioTek Instruments, Winooski, VT, USA). […] Experiments were performed in triplicate and each sample was measured in four replicates.

Each structure is given as a SMILES string. Values after ≈ are worked out from the molar mass of the structure shown.

For the compound `Cn1cccc1C(=O)C=Cc1ccc(-c2cccc([N+](=O)[O-])c2)o1` [Compound 2, 1-(1-Methyl-1H-pyrrol-2-yl)-3-(5-(3-nitrophenyl)furan-2-yl)prop-2-en-1-one], the melting point lay in the range of 123 to 124 °C. Besides, the IC50 in data set [1] was found to be 277 µg/mL (≈ 859 µM). For the same compound, the midpoint of inhibition with C6 rat glioma cell line, the IC50, lay at 258 µg/mL (≈ 800 µM). In [2], the IC50 is > 322 µg/mL. The same compound registered an IC50 in [3] of 322 µg/mL (≈ 999 µM). Moreover, the “antimicrobial activity in ATP bioluminescence assay” value (“antimicrobial activity” below) in the data set on E. faecalis (ATCC 29212) [4] is reported as “sensitive”. Further, the “antimicrobial activity” value with E. faecalis (ATCC 51299) [5] is listed as “antimicrobial activity close to chloramphenicol”. In the data set with E. faecalis (ATCC 29212) [6], the minimum inhibitory concentration (MIC) was found to be 100 µg/mL (≈ 310 µM). 200 µg/mL (≈ 621 µM) was the least that counted as inhibitory in [7] (MIC). The compound also registered an MIC against C. albicans (ATCC 90028) of 100 µg/mL (≈ 310 µM). Further, the MIC in the data set with S. aureus (ATCC 25923) was 200 µg/mL (≈ 621 µM). The compound further showed an MIC with E. coli (ATCC 25922) of 100 µg/mL (≈ 310 µM). Also, 100 µg/mL (≈ 310 µM) was the least that counted as inhibitory with E. faecalis (ATCC 51299) [8] (MIC). Besides, the lowest concentration to inhibit growth with C. krusei (ATCC 6258) (MIC) was 100 µg/mL (≈ 310 µM). This compound came in with an MIC in data set [9] of 100 µg/mL (≈ 310 µM). In the data set on C. glabrata (ATCC 90030), this compound showed an MIC of 100 µg/mL (≈ 310 µM).
Compound `Cn1cccc1C(=O)C=Cc1ccc(-c2ccccc2[N+](=O)[O-])o1` [Compound 3, 1-(1-Methyl-1H-pyrrol-2-yl)-3-(5-(2-nitrophenyl)furan-2-yl)prop-2-en-1-one] gave a melting point of 94 to 95 °C. This compound also had an IC50 in data set [1] of 27 µg/mL (≈ 83.8 µM). Also, the half-maximal inhibitory concentration (IC50) in the data set with C6 rat glioma cell line is > 322 µg/mL. In data set [2], the IC50 was > 322 µg/mL. Also, the IC50 in data set [3] was > 322 µg/mL. Besides, in the data set on E. faecalis (ATCC 29212) [4], the “antimicrobial activity” value is “sensitive”. Also, in the data set on C. albicans, the “antifungal activity in ATP bioluminescence assay” value was “no statistically significant effects”. Inhibition of growth against E. faecalis (ATCC 29212) [6] (MIC) required 100 µg/mL (≈ 310 µM). This compound yielded an MIC in [7] of 200 µg/mL (≈ 621 µM). The same compound gave an MIC with C. albicans (ATCC 90028) of 50 µg/mL (≈ 155 µM). For the same compound, in the data set with S. aureus (ATCC 25923), the MIC was 100 µg/mL (≈ 310 µM). For the same compound, the MIC against E. coli (ATCC 25922) is 100 µg/mL (≈ 310 µM). This compound registered an MIC in the data set on E. faecalis (ATCC 51299) [8] of 200 µg/mL (≈ 621 µM). For the same compound, the MIC against C. krusei (ATCC 6258) was 100 µg/mL (≈ 310 µM). In data set [9], this compound gave an MIC of 50 µg/mL (≈ 155 µM). In addition, the MIC in the data set with C. glabrata (ATCC 90030) amounted to 100 µg/mL (≈ 310 µM).
As to `Cn1cccc1C(=O)C=Cc1ccc(-c2ccc(Cl)c(Cl)c2)o1` [Compound 10, 1-(1-Methyl-1H-pyrrol-2-yl)-3-(5-(3,4-dichlorophenyl)furan-2-yl)prop-2-en-1-one], the melting point lay in the range of 132 to 133 °C. The IC50 in data set [1] was 100 µg/mL (≈ 289 µM). The same compound came in with an IC50 in the data set on C6 rat glioma cell line of 100 µg/mL (≈ 289 µM). The same compound returned an IC50 in [2] of 148 µg/mL (≈ 427 µM). Also, in data set [3], it took 346 µg/mL (≈ 999 µM) to reach half-maximal inhibition (IC50). Also, the “antimicrobial activity” value in the data set with E. faecalis (ATCC 51299) [5] is on record as “antimicrobial activity close to chloramphenicol”. In addition, the MIC against E. faecalis (ATCC 29212) [6] came to 400 µg/mL (≈ 1160 µM). In [7], the MIC is 200 µg/mL (≈ 578 µM). In the data set on C. albicans (ATCC 90028), this compound had an MIC of 100 µg/mL (≈ 289 µM). Besides, the lowest concentration to inhibit growth in the data set with S. aureus (ATCC 25923) (MIC) was 200 µg/mL (≈ 578 µM). Further, in the data set with E. coli (ATCC 25922), the MIC was 100 µg/mL (≈ 289 µM). Besides, the lowest concentration to inhibit growth in the data set on E. faecalis (ATCC 51299) [8] (MIC) was 100 µg/mL (≈ 289 µM). This compound also registered an MIC with C. krusei (ATCC 6258) of 200 µg/mL (≈ 578 µM). The same compound showed an MIC in [9] of 100 µg/mL (≈ 289 µM). The compound also registered an MIC against C. glabrata (ATCC 90030) of 200 µg/mL (≈ 578 µM).

Usually IC50 stands for the point on the concentration scale where inhibition reaches its midpoint. Read a low IC50 as inhibition by little substance. In general, melting point refers to the temperature, or range, at which the solid turns liquid. In general, MIC refers to the least concentration at which growth counts as inhibited.

(Values after paper PMC6149822, “A New Series of Pyrrole-Based Chalcones: Synthesis and Evaluation of Antimicrobial Activity, Cytotoxicity, and Genotoxicity” (Molecules : A Journal of Synthetic Chemistry and Natural …, 2017).)
